Measurements as given in patent publication US12383628B2 (priority 2016, dated 2025).
Entries after “also recorded” stand apart in the source; their conditions may differ. Square brackets hold non-standard residues; d marks the D form. Ends that are not written are not given here. Peptide text beside a SMILES is read from it. Phe(3-Br) = N[C@@H](Cc1cccc(Br)c1)C(=O)O; Dmt = Cc1cc(O)cc(C)c1C[C@H](N)C(=O)O; β3hF = N[C@H](CC(=O)O)Cc1ccccc1

Key:
[1] = Peptide gelation (tilted tube / inverted vial test, minimum gelation concentration); type: physicochemical; details: for Minimum gelation concentration (w/v % in PBS): '/' = no gel
Description: The peptide gelation occurred by dissolving the TFA salt of the hexapeptide (2 mg) in 100 μL of PBS solution (pH 7.4) or physiological saline solution (0.9% NaCl).
Both peptides 2 and 4 (Table 1) gave a transparent gel in the same conditions (PBS 10 mM at pH 7.4 with a minimum gelation concentration of 24 mM; 2% w/v). To evaluate the mechanical properties of these hydrogels in a more quantitative manner, rheological experiments were performed. The viscoelastic properties of the peptide hydrogels were measured by dynamic rheometry at 37° C. This technique allowed to measure the storage modulus G′ (corresponding to the material's stiffness or rigidity), loss modulus G″ (corresponding to the viscous properties of the material) and loss factor tan (o) (ratio of G″ over G′). According to the Winter-Chambon criterion, a material reaches gelation in rheological terms if the phase angle o gets frequency-independent (F. Chambon et al., 1987 and H. Winter et al., 1987).
The peptide gelation occurred by dissolving the TFA salt of the peptide in 100 μL of PBS solution or physiological saline solution (0.9% NaCl) (pH 7.4).
The peptide gelation occurs by dissolving the TFA salt of the hydrogelator (1 or 2 mg) in 100 μL of aqueous media, PBS solution (pH 7.4) or physiological saline solution (0.9% NaCl). After successive vortexing and sonication, the gel is left to rest overnight at room temperature.
The hydrogelation was realized under physiologically relevant conditions, namely via the addition of phosphate-buffered saline (PBS) or sterile physiological saline solution (0.9% NaCl). The needed amount of hydrogelator was weighed in an Eppendorf® and solubilized by the addition of the above solutions. After vortex and sonication steps, the resulting solution was left at room temperature until gelation occurred. The gelation was qualitatively verified by the inverted vial test (if no gravitational flow was visible the gelation was considered successful). It can be noticed that all peptide hydrogelators depicted formed gels in PBS and saline solution at a concentration of 1 to 2% w/v.

[2] = Dynamic rheometry of hydrogels (storage modulus G′); type: physicochemical
Description: Dynamic rheometry measurements were performed on an AR-G2 rheometer (TA Instruments) equipped with electrically heated plates and a 10 mm-diameter aluminium parallel plate-plate geometry. Viscoelastic properties were measured by oscillatory frequency sweeps at 37° C. in the range between 0.01 and 10 Hz, using a controlled strain of 0.05%. Hydrogel samples were made 12 h in advance. A ring-shaped reservoir filled with a saturated NH4Cl solution was used as a solvent trap.

human plasma = details: 37° C.; for fragment found / cleaved bond: up to 60 min
MOR = MOR (Homo sapiens, UniProt P35372); test: Binding tests (Ki) MOR
DOR = DOR (Homo sapiens, UniProt P41143); test: Binding tests (Ki) DOR
KOR = KOR (Homo sapiens, UniProt P41145); test: Binding tests (Ki) KOR
[3] = TEM / cryo-TEM fibre morphology of hydrogels; type: physicochemical; details: cryoTEM and negative staining, Example 9
Description: Formvar carbon-coated 400-mesh copper grids (Agar Scientific, Stansted, United Kingdom) were treated with plasma using an ELMO Glow discharge system to clean the grid surface and to render the carbon surface hydrophilic. Hydrogel samples were prepared 12 h in advance as described above. Small aliquots of sample (5 μL) were pipetted onto the carbon grids for adsorption. After 30 s, excess of sample was removed by using a Whatman 541 filter paper. The loaded grids were stained during 10 s with 1% uranyl formate after which the grids were air-dried. Samples were analysed using a JEOL JEM-1400 transmission electron microscope, operating at accelerating voltage of 120 kV. Images were recorded on a CMOS TemCam-F416 camera and accessory software of TVIPS.
200-mesh copper grids coated with perforated carbon film (Lacey carbon film: ProSci-Tech Old, Australia) were used and were glow discharged in nitrogen for 5 s immediately prior to use. Hydrogel samples were prepared 12 h in advance as described above. Small aliquots of sample (4 μL) were pipetted onto the carbon grids for adsorption. After 30 s, excess of sample was removed by using a Whatman 541 filter paper. The grid was then plunged into liquid ethane cooled by liquid nitrogen. Frozen grids were stored in liquid nitrogen until required. Samples were analysed using a Gatan 626 cryoholder and Tecnai 12 Transmission electron microscope, operating at accelerating voltage of 120 kV. Images were recorded using an FEI Eagle 4k×4k CCD camera.

in vitro = details: human, plasma
Description: Human plasma was obtained from the Belgian Red Cross (Vlaams-Brabant, Leuven). Prior to the stability test, selectivity, stability of the compound in the injection solvent, linearity, accuracy and precision of the method were investigated. Frozen (−20° C.) human plasma samples were thawed and thermostated to 37±2° C. Dissolution of the lyophilized peptide and consecutive dilutions were performed in water. The resulting aqueous solutions of each peptide individually was spiked in human plasma (10:90 v/v) with final plasma concentrations of 9 μM.
On every time point 100 μL spiked plasma was transferred to a 500 μL Eppendorf tube and a protein crash was performed using the corresponding precipitation solvent (4° C.). Suspensions were vortexed for 15 s and placed at 4° C. for 30 to 45 min. After centrifugation at 18 625 g for 20 min, 100 μL supernatant was diluted with 100 μL water in the injection vial.
Injection samples were vortexed for 5 sand placed in the autosampler. […] Concentrations were calculated by use of the calibration curve and transferred to a semi-log chart presenting the log concentrations as a function of time. The optimum curve was used to calculate the peptide half-life. Calculations were performed using Microsoft® Office Professional 2010 Excel.

L929 mouse fibroblasts = test: Cytotoxicity, Live/Dead viability staining on hydrogels (Example 9); type: cell-based
Description: Hydrogels were prepared at 1, 2 or 3 mg/100 μL as duplicate in a 96-well ULA plate (Cat #CORN3474; Corning-Costar, 60 μL each well). The gels were photographed and pre-equilibrated before seeding with cells. For equilibration, gels were incubated at room temperature in 40 μL of L929 culture medium with double-strength Anti-Anti (Cat #15240062, GIBCO) for 2 h prior to seeding with cells. The equilibration medium was removed before cell seeding and retained to examine if the gels dissolved (even partially) or disintegrated into the culture medium. Next, […] mouse fibroblasts (ATCC) were seeded onto hydrogels at a concentration of 200,000 cells/ml in a volume of 50 μl. The cells were photographed immediately after seeding, observed by microscopy 2 h post-seeding and then observed and photographed at 24 h post-seeding. The cell culture medium consisted of MEM+GlutaMAX I (Cat #41090-036; GIBCO); 10% foetal bovine serum (Cat #12003C; SAFC, Sigma), 2× Anti-Anti (Cat #[…]) and 1× Non-Essential Amino Acids (Cat #41090-036; GIBCO).
Bright field microscopy was performed through use of a IX71 inverted microscope with NIS-Elements F3.0 imaging software (Olympus). The TE2000 Eclipse fluorescent microscope with NIS-Elements AR3.2 software (Nikon) was used for fluorescence imaging microscopy. Automated cell counting was performed on the NC-200 NucleoCounter using proprietary lysis and stabilising reagents and cassettes (ChemoMetec).
The viability and distribution of cells was assessed using a LIVE/DEAD Viability/Cytotoxicity Kit *for Mammalian cells* (Live-Dead Kit), (Cat #13224; Molecular Probes). Briefly, a working solution of live/dead solution was made as per manufacturer's instructions by adding 1.25 μl of Calcein AM (solution A) to 2.5 ml of pre-warmed PBS. The solution was thoroughly mixed by vortex and 2.5 μl of Ethidium homodimer (solution B), was added before vortexing a second time to mix. Excess medium was removed and the gels rinsed with 20 μl of warm PBS before a 40 μl of Live/Dead kit working solution was added to each well. The plate was incubated in a 37° C. cell culture incubator for 20 min before viewing using a fluorescent microscope. Green fluorescence was emitted from the cytoplasm of viable cells (excitation/emission ˜495 nm/˜515 nm) while dead cell nuclei fluoresced red (excitation/emission ˜495/˜635 nm) allowing a distinction to be made between viable and dead cells.

[4] = Stability and degradability of biogels in human plasma (Example 8); type: in vitro ADME; details: human, human plasma; 37° C., in solution, 14 μM
Description: After centrifugation at 14 000 rpm for 15 minutes, 100 μL supernatant was diluted with 100 μL milliQ water in the injection vial. Injection samples were vortexed for 5 seconds and were analyzed by HPLC. […] Calculations were performed using Microsoft® Office Professional 2010 Excel.

Male CD1 mice = test: Radiant heat tail-flick test after s.c. administration, opioids in solution or co-formulated with hydrogelator; type: in vivo, mouse; details: for Time after administration at which no effect was detected / Time of peak antinociceptive action: s.c. bolus in solution (morphine 5 mg/kg; 14-MM 2.25 μg)
Description: Male CD1 mice (6-8 weeks old, body weight average 30 g) were obtained from Charles River (Sulzfeld, Germany). Mice were group-housed in a temperature controlled room with a 12 h light/dark cycle and with free access to food and water. All animal studies were conducted in accordance with ethical guidelines and animal welfare standards according to Austrian regulations for animal research, and were approved by the Committee of Animal Care of the Austrian Federal Ministry of Science and Research.
The radiant heat tail-flick test was used to assess antinociceptive effects of tested drugs after s.c. administration in mice using an UB 37360 Ugo Basile analgesiometer (Ugo Basile s.r.l., Varese, Italy) as described previously (A. Novoa et al., 2012). The reaction time required by the mouse to remove its tail due to the radiant heat was measured and defined as the tail-flick latency. A cut-off time of 10 s was also used in order to minimize tissue damage. The antinociceptive response was expressed as percent of Maximum Possible Effect (% MPE)=[(TL-BL)/(cut-off time-BL)]×100. Data were analyzed with ANOVA using Tukey's multiple comparison test, and graphically processed with the GraphPad Prism Software (GraphPad Software Inc., San Diego, CA).
(§1) Performed as described in Example 5.
as §1
The antinociceptive effect of co-formulations of a peptide hydrogelator as described herein with peptide-based analgesics was investigated in a model of thermal nociception using the tail-flick test in mice. […] The Tail-flick test was performed as described in Example 5.

Sequence of MOR (P35372 whole entry): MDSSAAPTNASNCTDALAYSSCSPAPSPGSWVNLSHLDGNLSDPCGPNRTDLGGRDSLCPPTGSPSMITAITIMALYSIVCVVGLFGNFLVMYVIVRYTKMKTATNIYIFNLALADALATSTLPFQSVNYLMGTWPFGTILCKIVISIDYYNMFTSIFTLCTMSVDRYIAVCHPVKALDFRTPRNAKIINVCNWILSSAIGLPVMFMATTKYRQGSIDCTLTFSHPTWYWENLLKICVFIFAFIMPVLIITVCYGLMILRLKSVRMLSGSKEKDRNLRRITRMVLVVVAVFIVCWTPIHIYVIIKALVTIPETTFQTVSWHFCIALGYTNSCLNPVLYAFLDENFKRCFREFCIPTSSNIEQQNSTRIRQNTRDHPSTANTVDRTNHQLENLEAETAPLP
Sequence of KOR (P41145 whole entry): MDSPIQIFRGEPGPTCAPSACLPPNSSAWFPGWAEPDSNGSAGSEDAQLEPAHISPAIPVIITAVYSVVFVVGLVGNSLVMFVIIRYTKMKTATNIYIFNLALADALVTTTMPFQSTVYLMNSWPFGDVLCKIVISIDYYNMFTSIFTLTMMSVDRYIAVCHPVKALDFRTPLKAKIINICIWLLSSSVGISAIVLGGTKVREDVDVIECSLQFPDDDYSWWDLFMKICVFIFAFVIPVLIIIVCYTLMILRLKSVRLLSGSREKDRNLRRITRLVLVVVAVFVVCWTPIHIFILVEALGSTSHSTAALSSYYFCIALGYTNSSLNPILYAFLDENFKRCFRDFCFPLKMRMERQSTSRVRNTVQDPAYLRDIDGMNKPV
Sequence of DOR (P41143 whole entry): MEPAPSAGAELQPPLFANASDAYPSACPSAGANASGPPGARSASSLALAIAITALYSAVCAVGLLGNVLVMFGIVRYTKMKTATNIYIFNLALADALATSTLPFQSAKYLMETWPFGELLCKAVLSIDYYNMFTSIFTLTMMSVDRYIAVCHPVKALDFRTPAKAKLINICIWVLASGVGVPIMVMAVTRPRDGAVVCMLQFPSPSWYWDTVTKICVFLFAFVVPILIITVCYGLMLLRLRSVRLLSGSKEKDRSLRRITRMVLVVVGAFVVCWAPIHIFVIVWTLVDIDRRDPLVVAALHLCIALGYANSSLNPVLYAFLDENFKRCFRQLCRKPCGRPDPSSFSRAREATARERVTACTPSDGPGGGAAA

H-Phe(3Br)-Gln-Phe(3Br)-Gln-Phe(3Br)-Lys-NH2 (H-[Phe(3-Br)]Q[Phe(3-Br)]Q[Phe(3-Br)]K-NH2) [peptide 33]
Minimum gelation concentration (w/v % in PBS) [1]: 1-2 w/v % | Gel strength compared to the non-halogenated peptide [2]: stronger gels

Dmt-OLy:s-Phe-Phe-Gln-Phe*-Gln-Phe*-Lys-NH2
fragment found (human plasma): heptapeptide, first_seen; also recorded: pentapeptide; also recorded: tripeptide

Cc1cc(O)cc(C)c1C[C@H](N)C(=O)N1CCC[C@H]1C(=O)N[C@@H](Cc1ccccc1)C(=O)N[C@@H](Cc1ccccc1)C(=O)N[C@@H](CCC(N)=O)C(=O)N[C@@H](Cc1ccccc1)C(=O)N[C@@H](CCC(N)=O)C(=O)N[C@@H](Cc1ccccc1)C(=O)N[C@@H](CCCCN)C(N)=O [CM-56, Dmt-Pro-Phe-Phe-Gln-Phe*-Gln-Phe-Lys-NH2] (H-[Dmt]PFFQFQFK-NH2; N-terminus assumed)
Ki (MOR): 0.065 µM | Ki (DOR): 0.176 µM | Ki (KOR): 0.337 µM

WEWQWK-NH2 [peptide 12, H-Trp-Glu-Trp*-Gln-Trp-Lys-NH2]
Fibre diameter [3]: ~5 nm | Minimum gelation concentration (w/v % in PBS) [1]: 1 w/v % | half-life at 9 μM (in vitro): ~21 min | Cytotoxicity in vitro (L929 mouse fibroblasts): showed no cytotoxicity in vitro

Cc1cc(O)cc(C)c1C[C@H](N)C(=O)N1CCC[C@H]1C(=O)N[C@@H](Cc1c[nH]c2ccccc12)C(=O)N[C@@H](Cc1ccccc1)C(=O)N[C@@H](CCC(N)=O)C(=O)N[C@@H](Cc1ccccc1)C(=O)N[C@@H](CCC(N)=O)C(=O)N[C@@H](Cc1ccccc1)C(=O)N[C@@H](CCCCN)C(N)=O [CM-58, Dmt-Pro-Trp-Phe-Gln-Phe*-Gln-Phe-Lys-NH2] (H-[Dmt]PWFQFQFK-NH2; N-terminus assumed)
Ki (MOR): 0.0075 µM | Ki (DOR): 0.015 µM | Ki (KOR): 0.12 µM | half-life at 14 μM [4]: ~12 min

CN1CC[C@]23c4c5ccc(O)c4O[C@H]2[C@@H](O)C=C[C@H]3[C@H]1C5 [morphine]
Time after administration at which no effect was detected (Male CD1 mice): 3 h | Time of peak antinociceptive action (Male CD1 mice): 30 min | Antinociceptive effect (% MPE) (Male CD1 mice; s.c. bolus in solution, 5 mg/kg (0.15 mg per mouse)): 80 % MPE

FQFQFK-NH2 [peptide 16, H-Phe-Gln-Phe*-Gln-Phe-Lys-NH2]
Fibre diameter [3]: ~5 nm | Minimum gelation concentration (MGC) ([1]; PBS or saline solution, Example 9): 1 % w/v | Minimum gelation concentration (w/v % in PBS) [1]: 2 w/v % | half-life at 9 μM (in vitro): ~3 min | Cytotoxicity in vitro (L929 mouse fibroblasts): showed no cytotoxicity in vitro

H-DLys-DPhe-DGln-DPhe*-DGlu-DPhe-NH2
not cleaved (human plasma; up to 1500 min): remains intact after 25 h of incubation

NCCCC[C@H](NC(=O)[C@H](Cc1ccccc1)NC(=O)[C@H](CCC(N)=O)NC(=O)[C@H](Cc1ccccc1)NC(=O)C[C@H](Cc1ccccc1)NC(=O)[C@H](CCC(=O)O)NC(=O)[C@@H](N)Cc1ccccc1)C(N)=O [peptide 27, H-Phe-Glu-13;;-homo-Phe-Phe-Gln-Phe-Lys-NH2] (H-FE[β3hF]FQFK-NH2)
Fibre diameter [3]: ~5 nm | half-life at 9 μM (in vitro): ~25 min | Cytotoxicity in vitro (L929 mouse fibroblasts): showed no cytotoxicity in vitro

Dmt-DArg-Phe-Phe-Gln-Phe*-Gln-Phe-Lys-NH2
cleaved bond (human plasma): Gln-Phe, first_seen, 2.5 min; also recorded: Gln-Phe, 7.5 min | fragment found (human plasma): Dmt-DArg-Phe-OH, 60 min

CO[C@@]12CCC(=O)[C@]3(C)Oc4c(O)ccc5c4[C@@]31CCN(C)[C@@H]2C5 [14-MM, 14-methoxymethopon]
Dose required to produce 80% MPE, times lower than morphine (Male CD1 mice; s.c. bolus): 66 times | Antinociceptive effect at peak of action (% MPE) (Male CD1 mice; s.c. bolus 2.25 μg, 30 min): 80 % of MPE | Time after administration at which no effect was detected (Male CD1 mice): 4 h | Time of peak antinociceptive action (Male CD1 mice): 30 min

Cc1cc(O)cc(C)c1C[C@H](N)C(=O)N1CCC[C@H]1C(=O)N[C@@H](Cc1ccccc1)C(=O)N[C@@H](Cc1ccccc1)C(=O)N[C@@H](CCC(=O)O)C(=O)N[C@@H](Cc1ccccc1)C(=O)N[C@@H](CCC(N)=O)C(=O)N[C@@H](Cc1ccccc1)C(=O)N[C@@H](CCCCN)C(N)=O [CM-54, Dmt-Pro-Phe-Phe-Glu-Phe*-Gln-Phe-Lys-NH2]
Ki (MOR): 0.135 µM

H-DPhe-DGlu-DPhe*-DGln-DPhe-DLys-NH2
not cleaved (human plasma; up to 5700 min): remained intact after 4 days of incubation

KFQFEF-NH2 [peptide 18, H-Lys-Phe-Gln-Phe*-Glu-Phe-NH2]
Fibre diameter [3]: ~5 nm | Minimum gelation concentration (w/v % in PBS) [1]: 2 w/v % | half-life at 9 μM (in vitro): ~5 min | Cytotoxicity in vitro (L929 mouse fibroblasts): showed no cytotoxicity in vitro

Dmt-DLys-Phe-Phe-Glu-Phe*-Gln-Phe-Lys-NH2
cleaved bond (human plasma): Gln-Phe, first_seen, 2.5 min; also recorded: Glu-Phe, 7.5 min
